Columns and labels:
Format in all cases: in vivo
[1] = test system: Culex pipiens pallens; experiment: Knockdown spray test on adult Culex pipiens pallens (Test Example 4); conditions: topical, 0.25 h, active ingredient 0.1% w/v, 0.5 ml sprayed, within 15 minutes, read-out: knockdown rate of the test insects within 15 minutes
Procedure, shortened: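 Knockdown counts were taken 2, 5 and 15 min after spraying and expressed as percent of the 10 adults tested. For the spray, 0.5 ml of solution was applied by spray gun (0.4 kg/cm^2) from 30 cm above a gauze-covered cup in a test chamber; the cup was taken out right after spraying.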

[2] = test system: Musca domestica; experiment: Knockdown spray test on adult Musca domestica (Test Example 3); conditions: topical, 0.25 h, active ingredient 2.0% w/v, 0.5 ml sprayed, within 15 minutes, read-out: knockdown rate of the test insects within 15 minutes
Procedure: Ten adult Musca domestica (five males and five females) were released in a polyethylene cup (bottom diameter: 10.6 cm), and the cup was covered with a 16-mesh nylon gauze. The polyethylene cup was placed on the bottom of a test chamber (bottom: 46 cm×46 cm, height: 70 cm). From a height of 30 cm above the upper surface of the polyethylene cup, 0.5 ml of the test drug solution was sprayed using a spray gun (a spraying pressure of 0.9 kg/cm^2). Immediately after spraying, the cup was taken out from the test chamber, and after 2 minutes, 5 minutes and 15 minutes, the number of knocked-down insects was counted to obtain a knockdown rate. The knockdown rate was calculated by the following equation.
(§1) Knockdown Rate (%)=(Number of Knocked-down Insects/Number of Tested Insects)×100

[3] = test system: Blattella germanica; experiment: Knockdown spray test on Blattella germanica, 2.0% w/v oil formulation (Test Example 1); conditions: topical, 0.25 h, active ingredient 2.0% w/v, 1.5 ml sprayed, within 15 minutes, read-out: knockdown rate of the test insects within 15 minutes
Procedure: Ten Blattella germanica (5 males and 5 females) were released in a test container (8.75 cm in diameter, 7.5 cm in height, and the bottom made of 16 mesh metallic wire) with the inner wall on which butter was applied, and the container was placed on the bottom of a test chamber (bottom: 46 cm×46 cm, height: 70 cm). From a height of 60 cm above the upper surface of the container, 1.5 ml of the test drug solution was sprayed using a spray gun (a spraying pressure of 0.42 kg/cm^2). Thirty seconds after spraying, the container was taken out from the test chamber, and after 2 minutes, 5 minutes and 15 minutes, the number of knocked-down insects was counted to obtain a knockdown rate. The knockdown rate was calculated by the following equation.
as §1

[4] = test system: Plutella xylostella; experiment: Foliar spray test on Plutella xylostella on cabbage (Test Example 10); conditions: 120 h, third instar larvae of Plutella xylostella on cabbage, 500 ppm spray 20 ml/cup, after five days, read-out: controlling value
Procedure: On the other hand, cabbage was planted in a polyethylene cup, and grown until the third-fourth true leaf was spread. The test spray solution was sprayed to the cabbage at a ratio of 20 ml/cup. After the drug solution sprayed on the cabbage was dried, 10 third instar larvae of Plutella xylostella were allowed to parasitize the cabbage. After five days, the number of Plutella xylostella was investigated, and the controlling value was calculated according to the following standard. Controlling value (%)={1−(Cb×Tai)/(Cai×Tb)}×100 In the equation, the symbols represent as follows. Cb: the number of insects in a non-treated section before treatment Cai: the number of insects in a non-treated section on observation Tb: the number of insects in a treated section before treatment Tai: the number of insects in a treated section on observation

[5] = test system: Blattella germanica; experiment: Knockdown spray test on Blattella germanica, 0.1% w/v oil formulation (Test Example 2); conditions: topical, 0.25 h, active ingredient 0.1% w/v, 1.5 ml sprayed, within 15 minutes, read-out: knockdown rate of the test insects within 15 minutes
Procedure, shortened: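 Ten German cockroaches (5 males, 5 females) in a mesh-bottomed, butter-walled container were sprayed with 1.5 ml test solution from 60 cm at 0.42 kg/cm^2 inside a chamber.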

[6] = test system: Musca domestica; experiment: Filter paper/sucrose bait death rate test on Musca domestica (Test Example 5); conditions: female imagoes of Musca domestica, 0.7 ml on filter paper, after 24 hours
Procedure: A filter paper having a diameter of 5.5 cm was spread on the bottom of a polyethylene cup having the same diameter and 0.7 ml of the test drug solution was added dropwise onto the filter paper, and 30 mg of sucrose was uniformly placed as bait.
Into the polyethylene cup, 10 female imagoes of Musca domestica were released, and the cup was sealed with a lid. After 24 hours, the life and death of Musca domestica was examined, and the death rate was calculated. The death rate was calculated by the following equation.
Death rate (%)=(Number of dead insects/Number of tested insects)×100

O=C(NCC1CCOC1)c1cc(COC/C=C/c2ccccc2)on1 (stereo not drawn) [(242), N-(tetrahydrofuran-3-ylmethyl)-5-(3-phenyl-(E)-2-propenyloxymethyl)isoxazole-3-carboxamide]
pest or weed control at 0.1 % strength [1]: ≥ 80% | pest or weed control at 2 % strength [2]: ≥ 80%

O=C(NCC1CCCOC1)c1cc(COCc2ccccc2)on1 (stereo not drawn) [(37), N-(tetrahydropyran-3-ylmethyl)-5-benzyloxymethylisoxazole-3-carboxamide]
pest or weed control at 2 % strength [3]: ≥ 80% | pest or weed control at 0.1 % strength [1]: ≥ 80%

Cc1cccc(COCc2cc(C(=O)NCC3CCOCC3)no2)c1 [(83), N-(tetrahydropyran-4-ylmethyl)-5-(3-methylbenzyloxymethyl)isoxazole-3-carboxamide]
pest or weed control at 500 ppm [4]: ≥ 90% | pest or weed control at 0.1 % strength [5]: ≥ 80% | pest or weed control at 0.1 % strength [1]: ≥ 80%

O=C(NCC1CCOC1)c1cc(COCCc2ccccc2)on1 (stereo not drawn) [(25), N-(tetrahydrofuran-3-ylmethyl)-5-(2-phenylethyl)oxymethylisoxazole-3-carboxamide]
pest or weed control at 2 % strength [3]: ≥ 80% | pest or weed control at 0.1 % strength [1]: ≥ 80%

O=C(NCC1CCOC1)c1cc(Cc2cccc(OC(F)(F)F)c2)on1 (stereo not drawn) [(313), N-(tetrahydrofuran-3-ylmethyl)-5-(3-trifluoromethoxybenzyl) isoxazole-3-carboxamide]
pest or weed control at 500 ppm [4]: ≥ 90% | pest or weed control at 0.1 % strength [5]: ≥ 80% | pest or weed control at 500 ppm [6]: ≥ 90% | pest or weed control at 0.1 % strength [1]: ≥ 80%

O=C(NCC1CCOC1)c1cc(COCc2cccc(Oc3ccccc3)c2)on1 (stereo not drawn) [(114), N-(tetrahydrofuran-3-ylmethyl)-5-(3-phenoxybenzyloxymethyl) isoxazole-3-carboxamide]
pest or weed control at 2 % strength [3]: ≥ 80% | pest or weed control at 0.1 % strength [1]: ≥ 80%

O=C(NCC1CCOC1)c1cc(Cc2ccc3ccccc3c2)on1 (stereo not drawn) [(159), N-(tetrahydrofuran-3-ylmethyl)-5-(naphthalen-2-ylmethyl)isoxazole-3-carboxamide]
pest or weed control at 0.1 % strength [1]: ≥ 80% | pest or weed control at 2 % strength [2]: ≥ 80%

COCc1c(F)c(F)c(COCc2cc(C(=O)NCC3CCOC3)no2)c(F)c1F (stereo not drawn) [(29), N-(tetrahydrofuran-3-ylmethyl)-5-(4-methoxymethyl-2,3,5,6-tetrafluorobenzyl)oxymethylisoxazole-3-carboxamide]
pest or weed control at 2 % strength [3]: ≥ 80% | pest or weed control at 0.1 % strength [1]: ≥ 80%

COc1ccc(COCc2cc(C(=O)NCC3CCOCC3)no2)cc1 [(100), N-(tetrahydropyran-4-ylmethyl)-5-(4-methoxybenzyloxymethyl) isoxazole-3-carboxamide]
pest or weed control at 500 ppm [4]: ≥ 90% | pest or weed control at 0.1 % strength [5]: ≥ 80% | pest or weed control at 500 ppm [6]: ≥ 90% | pest or weed control at 0.1 % strength [1]: ≥ 80%

CCC1(CNC(=O)c2cc(COCc3ccccc3)on2)COCOC1 [(38), N-[5-ethyl-5-(1,3-dioxanylmethyl)]-5-benzyloxymethylisoxazole-3-carboxamide]
pest or weed control at 2 % strength [3]: ≥ 80% | pest or weed control at 0.1 % strength [1]: ≥ 80%

O=C(NCC1COC1)c1cc(COCc2ccccc2)on1 [(337), N-(oxetan-3-ylmethyl)-5-benrzyloxymethylisoxazole-3-carboxamide]
pest or weed control at 2 % strength [3]: ≥ 80% | pest or weed control at 0.1 % strength [1]: ≥ 80%

Cc1c(C(=O)NCC2CCOC2)noc1Cc1cccc(F)c1 (stereo not drawn) [(294), N-(tetrahydrofuran-3-ylmethyl)-4-methyl-5-(3-fluorobezyl)isoxazole-3-carboxamide]
pest or weed control at 500 ppm [4]: ≥ 90% | pest or weed control at 0.1 % strength [5]: ≥ 80% | pest or weed control at 500 ppm [6]: ≥ 90% | pest or weed control at 0.1 % strength [1]: ≥ 80%

CC(OCc1cc(C(=O)NCC2CCOC2)no1)c1ccc2ccccc2c1 (stereo not drawn) [(28), N-(tetrahydrofuran-3-ylmethyl)-5-[1-(2-naphthyl)ethyl]oxymethylisoxazole-3-carboxamide]
pest or weed control at 2 % strength [3]: ≥ 80% | pest or weed control at 0.1 % strength [1]: ≥ 80%

O=C(NCC1CCOC1)c1cc(COC2CCCC2)on1 (stereo not drawn) [(19), N-(tetrahydrofuran-3-ylmethyl)-5-cyclopentyloxymethylisoxazole-3-carboxamide]
pest or weed control at 2 % strength [3]: ≥ 80%

CCCc1cc(C(=O)NCC2CCOC2)no1 (stereo not drawn) [(10), N-(tetrahydrofuran-3-ylmethyl)-5-propylisoxazole-3-carboxamide]
pest or weed control at 2 % strength [3]: ≥ 80%

O=C(NCC1CCOC1)c1cc(COCCOc2ccccc2)on1 (stereo not drawn) [(149), N-(tetrahydrofuran-3-ylmethyl)-5-(2-phenoxyethoxymethyl)isoxazole-3-carboxamide]
pest or weed control at 0.1 % strength [5]: ≥ 80% | pest or weed control at 2 % strength [3]: ≥ 80% | pest or weed control at 0.1 % strength [1]: ≥ 80%

O=C(NCC1CCOC1)c1cc(COc2ccccc2)on1 (stereo not drawn) [(23), N-(tetrahydrofuran-3-ylmethyl)-5-phenyloxymethylisoxazole-3-carboxamide]
pest or weed control at 500 ppm [4]: ≥ 90% | pest or weed control at 2 % strength [3]: ≥ 80% | pest or weed control at 0.1 % strength [1]: ≥ 80%

CSc1ccc(COCc2cc(C(=O)NCC3CCOCC3)no2)cc1 [(104), N-(tetrahydropyran-4-ylmethyl)-5-(4-methylthiobenzyloxymethyl)isoxazole-3-carboxamide]
pest or weed control at 500 ppm [4]: ≥ 90% | pest or weed control at 0.1 % strength [5]: ≥ 80% | pest or weed control at 0.1 % strength [1]: ≥ 80%

Cc1ccc(COCc2cc(C(=O)NCC3CCOC3)no2)cc1 (stereo not drawn) [(97), N-(tetrahydrofuran-3-ylmethyl)-5-(4-methylbenzyloxymethyl)isoxazole-3-carboxamide]
pest or weed control at 500 ppm [4]: ≥ 90% | pest or weed control at 0.1 % strength [5]: ≥ 80% | pest or weed control at 0.1 % strength [1]: ≥ 80%

CCCCCc1cc(C(=O)NCC2CCOC2)no1 (stereo not drawn) [(12), N-(tetrahydrofuran-3-ylmethyl)-5-pentylisoxazole-3-carboxamide]
pest or weed control at 2 % strength [3]: ≥ 80% | pest or weed control at 0.1 % strength [1]: ≥ 80%

O=C(NCC1CCCO1)c1cc(COCc2ccccc2)on1 (stereo not drawn) [(32), N-(tetrahydrofuran-2-ylmethyl)-5-benzyloxymethylisoxazole-3-carboxamide]
pest or weed control at 2 % strength [3]: ≥ 80% | pest or weed control at 0.1 % strength [1]: ≥ 80%

O=C(NCC1CCOC1)c1cc(COCc2cccc(COCc3ccccc3)c2)on1 (stereo not drawn) [(121), N-(tetrahydrofuran-3-ylmethyl)-5-(3-benzyloxymethylbenzyloxymethyl)isoxazole-3-carboxamide]
pest or weed control at 0.1 % strength [5]: ≥ 80% | pest or weed control at 500 ppm [6]: ≥ 90% | pest or weed control at 0.1 % strength [1]: ≥ 80%

CSc1ccc(COCc2cc(C(=O)NCC3CCOC3)no2)cc1 (stereo not drawn) [(103), N-(tetrahydrofuran-3-ylmethyl)-5-(4-methylthiobenzyloxymethyl)isoxazole-3-carboxamide]
pest or weed control at 500 ppm [4]: ≥ 90% | pest or weed control at 0.1 % strength [5]: ≥ 80% | pest or weed control at 0.1 % strength [1]: ≥ 80%

O=C(NCC1CCOC1)c1cc(COCc2ccc(F)cc2F)on1 (stereo not drawn) [(278), N-(tetrahydrofuran-3-ylmethyl)-5-(2,4-difluorobenzyloxymethyl)isoxazole-3-carboxamide]
pest or weed control at 0.1 % strength [5]: ≥ 80% | pest or weed control at 500 ppm [6]: ≥ 90% | pest or weed control at 0.1 % strength [1]: ≥ 80%

Cc1ccc(COCc2cc(C(=O)NCC3CCOCC3)no2)cc1 [(98), N-(tetrahydropyran-4-ylmethyl)-5-(4-methylbenzyloxymethyl)isoxazole-3-carboxamide]
pest or weed control at 500 ppm [4]: ≥ 90% | pest or weed control at 0.1 % strength [5]: ≥ 80% | pest or weed control at 0.1 % strength [1]: ≥ 80%

Source: patent US20150344466A1 (SUMITOMO CHEMICAL COMPANY, LIMITED, priority 2013, published 2015)
